# How the values were obtained:
# [1] = test system: acute myelogenous leukemia (AML); experiment: Rifampin treatment of Patient one; type: in vivo, human
# Method: This was a child with acute myelogenous leukemia (AML), who had blood counts of less than 2000 platelets and less than 300 white cells, persisting for 3 months. They were treated with Rifampin and on day 11 […] white cell count increased to 21,000, with 75% blasts.
# [2] = test system: HGA agent; settings: reported by Klein et al., Antimicrob. Agents and Chemother. 1997; cited from earlier work
# [3] = test system: intracellular organisms in the genus of Ehrlich/Anaplasma; settings: cited from earlier work
# [4] = test system: acute lymphocytic leukemia (ALL); experiment: Rifampin treatment of Patient two, end stage marrow failure; type: in vivo, human; settings: person, ALL recurrence after marrow transplant, no other treatment given
# Excerpt: No other treatment was available or given. After 2 months of rapid improvement, during which they regained the ability to walk and was discharged from the hospital, they succumbed to an acute apparently unrecognized cytomegalovirus infection.
compound,measurement,setting,value
Rifampicin [Rifampin],platelets,"[1]; after treatment, less than 2000 platelets before",increased less rapidly
same,blasts,"[1]; day 11 of treatment, share of white cell count",75%
same,white cell count,"[1]; day 11 of treatment, child, less than 300 white cells for 3 months before","21,000"
same,activity against the HGA agent,[2],"most active, and bactericidal"
same,effectiveness against intracellular organisms of genus Ehrlich/Anaplasma,[3],particularly effective
same,clinical outcome,[4],remarkable though temporary recovery
O=C(O)c1cn(C2CC2)c2cc(N3CCNCC3)c(F)cc2c1=O [ciprofloxacin],activity against the HGA agent,[2],"most active, and bactericidal"
O=C(N[C@H](CO)[C@H](O)c1ccc([N+](=O)[O-])cc1)C(Cl)Cl [chloramphenicol],activity against the HGA agent,[2],"weakly active, but not bactericidal"
CO[C@H]1/C=C/O[C@@]2(C)Oc3c(C)c(O)c4c(c3C2=O)C2=NC3(CCN(CC(C)C)CC3)NC2=C(NC(=O)/C(C)=C\C=C\[C@H](C)[C@H](O)[C@@H](C)[C@@H](O)[C@@H](C)[C@H](OC(C)=O)[C@@H]1C)C4=O [rifabutin],activity against the HGA agent,[2],"most active, and bactericidal"
N[C@@H]1[C@H]2CN(c3nc4c(cc3F)c(=O)c(C(=O)O)cn4-c3ccc(F)cc3F)C[C@@H]12 [trovafloxacin],activity against the HGA agent,[2],"most active, and bactericidal"
CO/N=C(\C(=O)N[C@@H]1C(=O)N2C(C(=O)O)=C(CSc3nc(=O)c(O)nn3C)CS[C@H]12)c1csc(N)n1 [cefatriaxone],activity against the HGA agent,[2],resistant
Gentamicin,activity against the HGA agent,[2],"weakly active, but not bactericidal"
C[C@H]1c2cccc(O)c2C(=O)C2=C(O)[C@]3(O)C(=O)C(C(N)=O)=C(O)[C@@H](N(C)C)[C@@H]3[C@@H](O)[C@@H]21 [doxycycline],activity against the HGA agent,[2],"most active, and bactericidal"
imipenem-cilastatin,activity against the HGA agent,[2],resistant
CC[C@H]1OC(=O)[C@H](C)[C@@H](O[C@H]2C[C@@](C)(OC)[C@@H](O)[C@H](C)O2)[C@H](C)[C@@H](O[C@@H]2O[C@H](C)C[C@H](N(C)C)[C@H]2O)[C@](C)(O)C[C@@H](C)CN(C)[C@H](C)[C@@H](O)[C@]1(C)O [azrithromycin],activity against the HGA agent,[2],resistant
thrmethoprim-sulfamethoxazolem,activity against the HGA agent,[2],resistant
CC1(C)S[C@@H]2[C@H](NC(=O)[C@H](N)c3ccccc3)C(=O)N2[C@H]1C(=O)O [ampicillin],activity against the HGA agent,[2],resistant
CC[C@H]1OC(=O)[C@H](C)[C@@H](O[C@H]2C[C@@](C)(OC)[C@@H](O)[C@H](C)O2)[C@H](C)[C@@H](O[C@@H]2O[C@H](C)C[C@H](N(C)C)[C@H]2O)[C@](C)(O)C[C@@H](C)C(=O)[C@H](C)[C@@H](O)[C@]1(C)O [erythromycin],activity against the HGA agent,[2],resistant
